Data on 49 molecules can be found in the Deep4Chem optical property database.

The structures appear in SMILES notation. Values joined by “and” are separate entries in the source; they are usually repeats but may differ in a detail not shown here. Identical values can stand only once.

This series in a line: solvent given as SMILES.

Where the note is “in ClC(Cl)Cl”, `COc1ccc(C2=Cc3c4ccccc4cc[n+]3[B-](F)(F)O2)cc1` came in with an absorption maximum of 410.5 nm.

The molecule `O=C(O)CCCOc1cc2ccc3cccc4ccc(c1)c2c34` displayed an absorption maximum (in CO) of 382 nm.

Take `Cc1cc(-c2ccc(-n3c4ccccc4c4ccccc43)cc2)nc(-c2ccc(-c3ccccc3)cc2)n1`: the absorption maximum was 341 nm (in C1CCOC1), 341 nm (in CN(C)C=O), 341 nm (in Cc1ccccc1) and 341 nm (in ClC(Cl)Cl).

`CCCCCCCCCCCCCCn1c(-c2cc(-c3nc4ccc(C)cc4n3CCCCCCCCCCCCCC)cc(-c3nc4ccc(C)cc4n3CCCCCCCCCCCCCC)c2)nc2ccc(C)cc21` registered an absorption maximum (in ClCCl) of 306.5 nm.

Where the note is “in ClC(Cl)Cl”, `Cc1ccc(-n2c3ccc(-c4ccc(-c5nc6ccccc6n5-c5ccccc5)cc4)cc3c3cc(-c4ccc(-c5nc6ccccc6n5-c5ccccc5)cc4)ccc32)cc1` came in with an absorption maximum of 318 nm.

Take `C(=C\c1cnc2ccccc2n1)/c1ccc(N(c2ccccc2)c2ccccc2)cc1`: the absorption maximum is listed as 423 nm (in C1CCOC1), 425 nm (in CC#N), 436 nm (in CS(C)=O) and 427 nm (in ClCCl).

In the case of `CC1(C)C(/C=C/C=C/C=C/C=C2/N(CCCCCC(=O)O)c3ccc(S(=O)(=O)[O-])cc3C2(C)C)=[N+](CCCCCC(=O)O)c2ccc(S(=O)(=O)[O-])cc21`, the absorption maximum was 753 nm (in CO) and 748 nm (in O).

For `O=S1(=O)C2=C(c3ccc(N(c4ccccc4)c4ccccc4)cc31)C1(C3=C(c4ccccc41)S(=O)(=O)c1cc(N(c4ccccc4)c4ccccc4)ccc13)c1ccccc12`, the absorption maximum (in C1CCOC1) was determined as 443 nm; the absorption maximum (in CC#N) was found to be 446 nm; the absorption maximum (in CCCCCC) was found to be 434 nm; the absorption maximum (in Cc1ccccc1) worked out at 450 nm; the absorption maximum (in ClCCl) is recorded as 451 nm.

The molecule `c1cc2ccc3ccc4cc3c2cc1c1ccc2ccc3ccc(cc3c2c1)c1ccc2ccc3ccc4cc3c2c1` had an absorption maximum (in Cc1ccccc1) of 375 nm.

Turning to `CC(C)(C)c1ccc2c(c1)sc1[n+]2[B-](F)(F)n2c(c3cccc4c(Br)ccc2c43)=C1C#N`, the absorption maximum is recorded as 539 nm (in C1CCOC1); 532 nm (in CC#N); 542 nm (in CCCCCC); 543 nm (in Cc1ccccc1); 538 nm (in ClCCl).

For the setting “in ClC(Cl)Cl”, `C(#Cc1cccs1)C(C#Cc1cccs1)=Cc1ccc(C=C(C#Cc2cccs2)C#Cc2cccs2)s1` showed an absorption maximum of 486 nm.

`CN1C(=CC2=C([O-])C(=CC3=[N+](C)c4ccccc4C3(C)C)C2=C2C(=O)c3ccccc3C2=O)C(C)(C)c2ccccc21` gave an absorption maximum (in ClC(Cl)Cl) of 675 nm.

In the case of `Cc1c(COC(=O)Cc2cccc3ccccc23)n2c(OCC(=O)Cc3cccc4ccccc34)c(C)c(=O)n2c1=O`, the absorption maximum (in CCO) is 379 nm.

As to `COc1ccc(-c2cc3c(o2)=CC2=Cc4cc5oc(-c6ccc(OC)cc6)cc5n4[B-](F)(F)[N+]=32)cc1`, the absorption maximum (in ClC(Cl)Cl) is 673 nm and 672 nm.

Regarding `CCOC(=O)c1c(-c2cc3ccc(OCC=C(C)C)cc3oc2=O)nn(-c2cccc(Cl)c2)c1C(=O)OCC`, the absorption maximum (in ClCCl) came to 339 nm.

Turning to `O=c1oc2ccccc2cc1-c1cc2ccccc2o1`, the absorption maximum by setting is: (in CC#N) 366 nm; (in CCOC(C)=O) 368 nm; (in CS(C)=O) 371 nm; (in Cc1ccccc1) 373 nm; (in O) 365 nm.

In turn, `FC(F)(F)c1ccc2oc3nc4oc5ccc(N(c6ccccc6)c6ccccc6)cc5c4cc3c2c1` registered an absorption maximum (in ClC(Cl)Cl) of 345 nm.

Regarding `COc1ccc2c3c(c4ccc(OC)cc4c2c1)C1(c2ccccc2-c2ccccc21)c1ccccc1-3`, the absorption maximum (in C1CCCCC1) worked out at 386 nm.

Regarding `c1ccc2c(c1)Oc1ccccc1N2c1ccc2c(c1)c1ccccc1n1c3ccccc3nc21`, the absorption maximum (in Cc1ccccc1) amounted to 376 nm.

`C[NH+](C)c1c2ccccc2cc2ccccc12`: the absorption maximum (in O) stood at 389 nm.

`C[Si]1(C)c2cc(C#Cc3ccccc3)ccc2C=Cc2ccc(C#Cc3ccccc3)cc21`: the absorption maximum (in ClCCl) was determined as 403 nm.

Regarding `O=C1C=C(Nc2cccc(F)c2F)C(=O)c2ccccc21`, the absorption maximum is given as 428 nm (in CCCCCC) and 439 nm (in CO).

Molecule `CCCCCCOc1cc(C=C2C(=O)c3ccccc3C2=O)c(OCCCCCC)cc1C=C1C(=O)c2ccccc2C1=O` yielded an absorption maximum (in ClCCl) of 512 nm.

In turn, `C(=C\c1cccc2ccccc12)/c1ccc(-c2nnc(-c3ccc(-c4cc5ccccc5s4)cc3)o2)cc1` displayed an absorption maximum (in CC#N) of 349 nm; an absorption maximum (in CC(C)=O) of 350 nm; an absorption maximum (in CCCCCCCC) of 354 nm; an absorption maximum (in CCCCCCCCCCO) of 360 nm; an absorption maximum (in CCCCCCCCO) of 359 nm; an absorption maximum (in CCCCCO) of 356 nm. In addition, the absorption maximum is 342 nm (in CCCO), 357 nm (in CN(C)C=O), 351 nm (in CO) and 360 nm (in CS(C)=O).

For `C[Si](C)(C)C#Cc1ccc2c3cccc4cccc(c5cccc1c52)c43`, the absorption maximum (in C1CCCCC1) is listed as 459 nm.

`c1ccc(-n2c(-c3ccc(-n4c5ccccc5c5ccccc54)cc3)nc3nccnc32)cc1` displayed an absorption maximum (in CC#N) of 339 nm.

Turning to `N#CC=C(c1ccc(N2c3ccccc3Oc3ccccc32)cc1)c1ccc(N2c3ccccc3Oc3ccccc32)cc1`, under “in Cc1ccccc1”, the absorption maximum is 405 nm.

Consider `Cc1cccc2c3ccccc3n(-c3ccc(-c4c(-c5ccccc5)c(C#N)c(C#N)c(-c5ccccc5)c4-c4ccc(-n5c6ccccc6c6cccc(C)c65)cc4)cc3)c12`, for which, for the setting “in Cc1ccccc1”, the absorption maximum turned out to be 339 nm.

In the case of `Fc1ccc(-c2cc3c4c(c2)CCc2cc(-c5ccc(F)cc5)cc(c2-4)CC3)cc1`, the absorption maximum (in ClC(Cl)Cl) worked out at 323.56 nm.

`COC1=[N+]2C(=C(c3ccccc3)c3ccc(OC)n3[B-]2(F)F)C=C1SC#N` displayed an absorption maximum (in CC#N) of 504 nm; an absorption maximum (in CCCCCC) of 514 nm; an absorption maximum (in CCOC(C)=O) of 506 nm; an absorption maximum (in CO) of 497 nm; an absorption maximum (in ClCCl) of 515 nm.

Consider `c1ccc2c3c(ccc2c1)-c1cccc2cc4ccccc4c-3c12`, for which the absorption maximum (in CCCCCCC) was 446 nm.

As to `CCC1=C(C)C2=C(C)c3cc(I)c(I)n3[B-](F)(F)[N+]2=C1C`, the absorption maximum was found to be 532 nm (in C1CCCCC1); 515.5 nm (in CC(C)=O); 520 nm (in CCO); 518.5 nm (in CCOC(C)=O); 518 nm (in CO); 511.5 nm (in OCC(F)(F)F).

Consider `CCOC(=O)c1c(-c2c(Cl)c3ccccc3oc2=O)nn(-c2cccc(Cl)c2)c1C(=O)OCC`, for which, where the note is “in ClCCl”, the absorption maximum came to 321 nm.

For `CCC1=C(C)C(=O)n2c1cc1c(C)c(CCC(=O)O)c(C)n1c2=O`, the absorption maximum came out at 408 nm (in CC#N); 413 nm (in CC(C)=O); 425 nm (in CO); 426 nm (in CS(C)=O); 428 nm (in ClC(Cl)Cl); 421 nm (in c1ccccc1).

Turning to `Clc1ccc(-c2cccc3ncc(-c4ccccc4)n23)cc1`, where the note is “in ClCCl”, the absorption maximum worked out at 338 nm.

For `CN1C(=CC2=C([O-])C(=Cc3oc4ccccc4[n+]3C)C2=C(C#N)C#N)Sc2ccccc21`, the absorption maximum (in ClC(Cl)Cl) turned out to be 664 nm.

In turn, `CC(C)(C)c1ccc(N(c2ccc(S(=O)(=O)c3ccc(S(=O)(=O)c4ccc(N(c5ccc(C(C)(C)C)cc5)c5ccccc5C(C)(C)C)cc4)cc3)cc2)c2ccccc2C(C)(C)C)cc1` had an absorption maximum (in Cc1ccccc1) of 351 nm.

`O=c1cc2cc(O)c3cccc4ccc(o1)c2c43` showed an absorption maximum (in CC1CCCO1) of 469 nm.

For `CCOC(=O)C1=C(C(=O)OCC)C2(c3ccccc3-c3ccccc32)[C@@H](c2ccccc2)C=C2c3cc(OC)c(OC)cc3CCN21`, under “in ClCCl”, the absorption maximum was 311 nm.

On to `N#Cc1c(N2c3ccccc3C(c3ccccc3)(c3ccccc3)c3ccccc32)cccc1N1c2ccccc2C(c2ccccc2)(c2ccccc2)c2ccccc21`, for which the absorption maximum (in Cc1ccccc1) is reported as 369 nm.

Where the note is “in C1CCCCC1”, `CC(C)(C)c1ccc2c(c1)Cc1cc(C(C)(C)C)ccc1-2` registered an absorption maximum of 308 nm.

As to `C(=C\c1ncc2ccccc2n1)/c1ccc(N(c2ccccc2)c2ccccc2)cc1`, under “in ClCCl”, the absorption maximum is given as 400 nm.

Consider `Cc1ccc(-n2c3ccccc3c3cc(-c4ccc5[n+](c4)[B-](F)(F)n4c-5nc5c6ccccc6c6ccccc6c54)ccc32)cc1`, for which, for the setting “in ClC(Cl)Cl”, the absorption maximum is 444 nm.

For `COc1ccc(C2=CC3=C(c4c(C)cc(C)cc4C)c4cc(-c5ccc(OC)cc5)c(-c5ccc(OC)cc5)n4[B-](F)(F)[N+]3=C2c2ccc(OC)cc2)cc1`, the absorption maximum amounted to 621 nm (in C1CCCCC1); 621 nm (in C1CCOC1); 608 nm (in CC#N); 625 nm (in Cc1ccccc1); 616 nm (in ClCCl).

As for `CCN(CC)c1ccc(-c2nc3c(c4c2-c2ccccc2CC4)-c2ccccc2CC3)cc1`, the absorption maximum (in C1CCOC1) is listed as 357 nm; the absorption maximum (in CC#N) came out at 360 nm; the absorption maximum (in CCCCCC) worked out at 355 nm; the absorption maximum (in CCOC(C)=O) is recorded as 346 nm; the absorption maximum (in CO) turned out to be 352 nm; the absorption maximum (in CS(C)=O) came out at 361 nm. The absorption maximum by setting is: (in Cc1ccccc1) 359 nm; (in ClCCl) 357 nm.

The molecule `CCc1ccc2ccc(-c3ccccc3)nn12` showed an absorption maximum (in C1CCCCC1) of 405 nm.

`O=C(O)CCCCCn1c2ccc(Br)cc2c(=O)c2cc(S(=O)(=O)O)ccc21` registered an absorption maximum (in O) of 416 nm.

Turning to `CC1(C)c2ccccc2N(c2ccc3c(c2)c2cc(N4c5ccccc5C(C)(C)c5ccccc54)cc4c5ccccc5n3c42)c2ccccc21`, under “in C1CCOC1”, the absorption maximum is recorded as 367 nm.

On to `C(C#Cc1ccc2ccc3cccc4ccc1c2c34)#Cc1cccc2ccccc12`, for which the absorption maximum by setting is: (in C1CCCCC1) 409 nm; (in CC#N) 407 nm; (in CO) 406 nm; (in ClCCl) 412 nm.
